Data: patent US9328374B2, “Selective culture medium and method for detecting carbapenem-resistant bacteria in a test sample” (Institut National de la Sante et de la Recherche Medicale …, priority 2011, dated 2016)

How the values were obtained:
K. pneumoniae = test: MIC of imipenem, ertapenem and meropenem; assay type: cell-based, Klebsiella pneumoniae
P. rettgeri = test: MIC of imipenem, ertapenem and meropenem; assay type: cell-based, Providencia rettgeri

C[C@@H](O)[C@H]1C(=O)N2C(C(=O)O)=C(SCCN=CN)C[C@H]12 [IPM, imipenem]
MIC (K. pneumoniae; K. pneumoniae KIE, NDM-1 + SHV-38 + CMY-16 + OXA-10): 0.75 µg/mL
MIC (K. pneumoniae; K. pneumoniae KPN (CTX-M-15)): 0.12 µg/mL
MIC (K. pneumoniae; K. pneumoniae KPN, CTX-M-15, non-carbapenemase producer): 0.12 µg/mL
MIC (K. pneumoniae; K. pneumoniae LEG (CTX-M-15 + TEM-1 + SHV-12)): 0.75 µg/mL
MIC (K. pneumoniae; K. pneumoniae LEG, CTX-M-15 + TEM-1 + SHV-12, non-carbapenemase producer, porin deficiency): 0.75 µg/mL
MIC (K. pneumoniae; K. pneumoniae LIB (OXA-48)): >32 µg/mL
MIC (K. pneumoniae; K. pneumoniae LIB, OXA-48): 16 µg/mL
MIC (K. pneumoniae; K. pneumoniae LIE, KPC-2 + TEM-2 + OXA-9): >32 µg/mL
MIC (K. pneumoniae; K. pneumoniae LOU, OXA-48): 4 µg/mL
MIC (K. pneumoniae; K. pneumoniae MAD (VIM-1 + CTX-M-3)): 1 µg/mL
MIC (K. pneumoniae; K. pneumoniae MAD, VIM-1+ CTX-M-3): 1 µg/mL
MIC (K. pneumoniae; K. pneumoniae MEK (CTX-M-15 + SHV-11)): 1.5 µg/mL
MIC (K. pneumoniae; K. pneumoniae MEK, CTX-M-15 + SHV-11, non-carbapenemase producer, porin deficiency): 1.5 µg/mL
MIC (K. pneumoniae; K. pneumoniae MUS (KPC-2 + TEM-1 + SHV-11 + SHV-12)): 0.75 µg/mL
MIC (K. pneumoniae; K. pneumoniae MUS, KPC-2 + TEM-1 + SHV-11 + SHV-12): 0.75 µg/mL
MIC (K. pneumoniae; K. pneumoniae OM2 (NDM-1 + TEM-1 + CTX-M-3 + SHV-11 + OXA-1)): 0.75 µg/mL
MIC (K. pneumoniae; K. pneumoniae OM2, NDM-1 + TEM-1 + CTX-M-3 + SHV-11 + OXA-1): 0.75 µg/mL
MIC (K. pneumoniae; K. pneumoniae OM4, NDM-1 + TEM-1 + CTX-M-15 + SHV-12 + OXA-9): 4 µg/mL
MIC (K. pneumoniae; K. pneumoniae OM8, NDM-1 + TEM-1 + CTX-M-15 + SHV-11 + OXA-1): 2 µg/mL
MIC (K. pneumoniae; K. pneumoniae OM11, OXA-48 + TEM-1 + CTX-M-14): 0.5 µg/mL
MIC (K. pneumoniae; K. pneumoniae OM13, NDM-1 + TEM-1 + CTX-M-15 + SHV-28 + OXA-1 + OXA-9): 3 µg/mL
MIC (K. pneumoniae; K. pneumoniae OM14, OXA-48 + TEM-1): 0.5 µg/mL
MIC (K. pneumoniae; K. pneumoniae OM15, NDM-1 + CTX-M-15 + SHV-130 + OXA-1): 1.5 µg/mL
MIC (K. pneumoniae; K. pneumoniae OM16, NDM-1 + CTX-M-15 + OXA-1 + OXA-181): 8 µg/mL
MIC (K. pneumoniae; K. pneumoniae OM19, NDM-1 + CTX-M-15 + SHV-12 + OXA-1): 4 µg/mL
MIC (K. pneumoniae; K. pneumoniae OMA419 (NDM-1 + OXA-1)): 1.5 µg/mL
MIC (K. pneumoniae; K. pneumoniae OMA419, NDM-1 + OXA-1): 1.5 µg/mL
MIC (K. pneumoniae; K. pneumoniae OMA601, NDM-1 + CTX-M-15 + OXA-1 + OXA-9): >32 µg/mL
MIC (K. pneumoniae; K. pneumoniae OMA (OXA-181 + CTX-M-15 + OXA-1)): 0.5 µg/mL
MIC (K. pneumoniae; K. pneumoniae OMA, OXA-181 + CTXM-15 + OXA-1): 0.5 µg/mL
MIC (K. pneumoniae; K. pneumoniae RAM (OXA-48)): 1 µg/mL
MIC (K. pneumoniae; K. pneumoniae RAM, OXA-48): 1 µg/mL
MIC (K. pneumoniae; K. pneumoniae ROB (OXA-48 + CTX-M-15 + TEM-1)): 0.38 µg/mL
MIC (K. pneumoniae; K. pneumoniae ROU (OXA-48 + CTX-M-15)): 0.5 µg/mL
MIC (K. pneumoniae; K. pneumoniae ROU, OXA-48 + CTX-M-15): 0.5 µg/mL
MIC (K. pneumoniae; K. pneumoniae SCO (OXA-48)): 0.5 µg/mL
MIC (K. pneumoniae; K. pneumoniae SCO, OXA-48): 0.5 µg/mL
MIC (K. pneumoniae; K. pneumoniae SHI (CTX-M-15 + TEM-1 + SHV-1)): 0.25 µg/mL
MIC (K. pneumoniae; K. pneumoniae SHI, CTX-M-15 + TEM-1 + SHV-11, non-carbapenemase producer, porin deficiency): 0.25 µg/mL
MIC (K. pneumoniae; K. pneumoniae SHM (CTX-M-15 + TEM-1 + SHV-11)): 3 µg/mL
MIC (K. pneumoniae; K. pneumoniae SHM, CTX-M-15 + TEM-1 + SHV-11, non-carbapenemase producer, porin deficiency): 3 µg/mL
MIC (K. pneumoniae; K. pneumoniae SIC (OXA-48 + CTX-M-15 + SHV-28)): 0.25 µg/mL
MIC (K. pneumoniae; K. pneumoniae SIC, OXA-48 + CTX-M-15 + SHV-28): 0.25 µg/mL
MIC (K. pneumoniae; K. pneumoniae SIM (CTX-M-15 + TEM-1 + SHV-1)): 8 µg/mL
MIC (K. pneumoniae; K. pneumoniae SIM, CTX-M-15 + TEM-1 + SHV-1, non-carbapenemase producer, porin deficiency): 8 µg/mL
MIC (K. pneumoniae; K. pneumoniae TAW, IMP-8 + SHV-12): 0.5 µg/mL
MIC (K. pneumoniae; K. pneumoniae TIK, OXA-48): 0.75 µg/mL
MIC (K. pneumoniae; K. pneumoniae TUR (IMP-1)): 1 µg/mL
MIC (K. pneumoniae; K. pneumoniae TUR, IMP-1): 1 µg/mL
MIC (K. pneumoniae; K. pneumoniae TWA, IMP-8): 1 µg/mL
MIC (K. pneumoniae; K. pneumoniae UK (NDM-1 + CTX-M-15 + CMY-4 + OXA-1)): >32 µg/mL
MIC (K. pneumoniae; K. pneumoniae UK, NDM-1 + CTX-M-15 + CMY-4 + OXA-1): >32 µg/mL
MIC (K. pneumoniae; K. pneumoniae VER, OXA-48 + TEM-1 + CTX-M-15 + SHV-11): 0.38 µg/mL
MIC (K. pneumoniae; K. pneumoniae VSG (OXA-48 + TEM-1 + CTX-M-15 + OXA-1)): 0.75 µg/mL
MIC (K. pneumoniae; K. pneumoniae VSG, OXA-48 + TEM-1 + CTX-M-15 + OXA-1): 0.75 µg/mL
MIC (K. pneumoniae; K. pneumoniae YC, KPC-2 + TEM-1 + SHV-11 + SHV-12 + OXA-9): 4 µg/mL
MIC (K. pneumoniae; strain K. pneumoniae 7725, SHV-1, non-carbapenemase producer): 0.19 µg/mL
MIC (K. pneumoniae; strain K. pneumoniae 648236, SHV-2a, non-carbapenemase producer): 0.25 µg/mL
MIC (K. pneumoniae; strain K. pneumoniae ALE, CTX-M-15 + SHV-1, non-carbapenemase producer): 1 µg/mL
MIC (K. pneumoniae; strain K. pneumoniae AMS, OXA-48 + TEM-1 + CTX-M-15 + OXA-1): 0.5 µg/mL
MIC (K. pneumoniae; strain K. pneumoniae BAJ, OXA-48 + TEM-1 + CTX-M-15 + SHV-28): 0.5 µg/mL
MIC (K. pneumoniae; strain K. pneumoniae BED, CTX-M-15 + TEM-1 + SHV-11, non-carbapenemase producer): 1.5 µg/mL
MIC (K. pneumoniae; strain K. pneumoniae BEL, OXA-48): 1 µg/mL
MIC (K. pneumoniae; strain K. pneumoniae BEN, OXA-48 + TEM-1 + CTX-M-15 + SHV-28): 0.38 µg/mL
MIC (K. pneumoniae; strain K. pneumoniae BER, SHV-28 + TEM-1, non-carbapenemase producer): 1 µg/mL
MIC (K. pneumoniae; strain K. pneumoniae ELK, OXA-48 + TEM-1 + CTX-M-15 + SHV-11): 0.5 µg/mL
MIC (K. pneumoniae; strain K. pneumoniae HOL, OXA-181 + CTX-M-15): 1 µg/mL
MIC (K. pneumoniae; strain K. pneumoniae MUS, KPC-2 + TEM-1 + SHV-11 + SHV-12): 0.75 µg/mL
MIC (K. pneumoniae; strain K. pneumoniae OM2, NDM-1 + TEM-1 + CTX-M-3 + SHV-11 + OXA-1): 0.75 µg/mL
MIC (K. pneumoniae; strain K. pneumoniae OMA419, NDM-1 + OXA-1): 1.5 µg/mL
MIC (K. pneumoniae; strain K. pneumoniae OMA, OXA-181 + CTXM-15 + OXA-1): 0.5 µg/mL
MIC (K. pneumoniae; strain K. pneumoniae ROU, OXA-48 + CTX-M-15): 0.5 µg/mL
MIC (K. pneumoniae; strain K. pneumoniae SCO, OXA-48): 0.5 µg/mL
MIC (K. pneumoniae; strain K. pneumoniae SIC, OXA-48 + CTX-M-15 + SHV-28): 0.25 µg/mL
MIC (K. pneumoniae; strain K. pneumoniae VSG, OXA-48 + TEM-1 + CTX-M-15 + OXA-1): 0.75 µg/mL
MIC (P. rettgeri; P. rettgeri RAP (OXA-181 + OXA-1)): 8 µg/mL
MIC (P. rettgeri; P. rettgeri RAP, OXA-181 + OXA-1): 8 µg/mL
MIC (P. rettgeri; strain P. rettgeri RAP, OXA-181 + OXA-1): 8 µg/mL
